Entries after “also recorded” stand apart in the source; their conditions may differ. Like-named read-outs stand apart in the source and are kept apart here.
Assays:
in vivo [1] = conditions: for AUC: AUC0-τ; for half-life: t½
From the text: Animal studies. […] Animal studies were approved by the University of Georgia Animal Care and Use Committee and conducted in accordance with guidelines established by the Animal Welfare Act and the National Institutes of Health Guide for the Care and Use of Laboratory Animals. […] Animals were acclimatized to this environment for one week prior to the experiments.
At selected time intervals, mice (three animals per each time point) were anesthetized with diethyl ether and sacrificed by exsanguination via left ventricular heart puncture. Serum was harvested from blood collected. The brain was excised, rinsed with normal saline, blotted dry and weighed.
(§1) Analytical Methodology. […] The brain or liver tissue were homogenized in a 1:1 (g:mL) ratio with ice cold isotonic 0.05 M phosphate buffer, pH 7.4. […] Acetonitrile (600 μL) containing 0.1% acetic acid was added while vortexing to precipitate proteins. The tubes were centrifuged at 3,000 rpm for five minutes and the supernatant was transferred to a clean tube. Supernatant was evaporated to dryness under a stream of nitrogen gas at room temperature. The residual film was reconstituted in 110 μL of mobile phase and 50 μL was injected onto the HPLC.
(§2) Chromatographic separations were performed using a Hypersil ODS column 150×4.5 mm, 5 μm particle size (Alltech Associates, Deerfield, Ill.) preceded by a guard column packed with 30-40 μm pellicular Perisorb RP-18. Mobile phase flow rate was 2 mL/min. For the analysis of FAAddP and 2′-F-ara-ddA, the mobile phase consisted of 7% (v/v) acetonitrile in 80 mM sodium acetate, pH 5.0. […] Eluants were monitored at a UV wavelength of 260 nm.
(§3) Nucleoside standards ranging from 0.04 μg/mL to 100 μg/mL, prepared in blank PBS, serum, brain homogenate and liver homogenate were treated the same as unknown samples. Samples with nucleoside concentrations greater than 100 μg/mL were diluted with the appropriate blank matrix.
Data analysis in vivo studies. Nucleoside concentration as a function of time data were analyzed by a non-compartmental technique. […] Relative brain exposure (re) was calculated from AUCbrain/AUCserum.

HIV-1 = conditions: relative to parent compounds ddA, ddI; cited from earlier work
[2] = in vivo; cited from earlier work
[3] = Stability of 6-AAP at pH 2, 7 and 11 by UV spectroscopy; assay type: physicochemical; conditions: 37° C.
Method: (§4) The stability of 6-AAP at pH 2, 7 and 11 and towards adenosine deaminase hydrolysis was studied by UV spectroscopy.
Stability studies of 6AAP. A kinetic study at varying pHs (pH 2, 7 and 11 at 37.1° C.) was performed on a UV spectrophotometer to investigate the stability of 6-AAP. […] At pH 2, the compound was stable.

adenosine deaminase = biological target: T1, adenosine deaminase (Bos taurus, UniProt P56658); test: Adenosine deaminase study of 6-AAP; assay type: biochemical, calf; conditions: phosphate buffer pH 7.4, 25° C., up to three hours
T1 construct: Type II crude powder from calf intestinal mucosa; purchased Sigma chemical Co., St. Louis, Mo; Type II crude powder; host or cells: calf intestinal mucosa
T1 sequence (P56658 1-363): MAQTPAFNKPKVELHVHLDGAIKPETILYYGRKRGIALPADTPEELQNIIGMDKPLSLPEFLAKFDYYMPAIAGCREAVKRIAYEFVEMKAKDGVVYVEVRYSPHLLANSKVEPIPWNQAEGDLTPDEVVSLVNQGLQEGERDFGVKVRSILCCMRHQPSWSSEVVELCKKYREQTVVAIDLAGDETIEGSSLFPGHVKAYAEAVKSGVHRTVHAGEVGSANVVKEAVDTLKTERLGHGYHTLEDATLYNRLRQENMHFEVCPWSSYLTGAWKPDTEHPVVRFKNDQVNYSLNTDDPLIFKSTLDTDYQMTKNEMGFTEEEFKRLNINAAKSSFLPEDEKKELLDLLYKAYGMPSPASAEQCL
Method: as §4
Materials: Melting points were determined on a Mel-Temp II laboratory device and are uncorrected. The ^1H NMR spectra were recorded on a JEOL FX 90 Q FT spectrophotometer, with TMS as the internal standard; chemical shifts are reported in parts per million (δ), and the signals are quoted as s (singlet), d (doublet), t (triplet) or m (multiplet). UV spectra are recorded on a Beckman DU-650 spectrophotometer. TLC was performed on Uniplates (silica gel) purchased from Analtech Co. Elemental analysis was performed by Atlantic Microlab, Inc., Norcross, Ga. Ara-A and Adenosine deaminase (Type II crude powder from calf intestinal mucosa, 1-5 units/mg activity) was purchased from Sigma chemical Co., St. Louis, Mo. All other chemicals are of reagent grade. Methanol and acetonitrile, methyl sulfoxide were purchased from EM Science, Gibbstown, N.J.
Adenosine deaminase studies.

in vivo [4] = conditions: female, NIH Swiss, mouse; for Kp: brain
Method: (§5) Analysis. […] All the solvents were of HPLC grade. Chromatography was performed on an Altech Hypersil ODS C18 (5 μm particle size, 4.5×150 mm, Altech Associates, Deerfield, Ill.).
(§6) In vivo pharmacokinetics: Female NIH Swiss mice (Harland Sprague-Dawley, Indianapolis, Ind.) weighing 24-28 g were used for the pharmacokinetic experiments.
(§7) At least three animals each were sacrificed at 0.08, 0.025, 0.5, 0.75, 1.0, 2.0, 3.0, 4.0, 5.0 and 6.0 hours after drug administration. Blood (serum) from the heart and whole-brain samples were collected. Serum samples were treated immediately and brain samples were frozen at −20° C. until analysis. To determine the nucleoside concentrations in the serum, a know amount of serum sample, 50 μL of the internal standard (AzdU, 5 μg/mL) and 1.0 mL of acetonitrile as a protein precipitant were added to polypropylene microcentrifuge tubes (1.7 mL). Tubes were mixed and centrifuged at 9,000 rpm for 10 minutes.
(§8) After homogenization, 1.8 mL of acetonitrile was added to tissue homogenates, samples were mixed and centrifuged at 9,000 rpm for 10 minutes. The resulting supernatant from the serum or the brain was transferred to a clean tube and dried under a stream of nitrogen gas at 22° C. The residue was reconstituted in 220 μL of mobile phase D and after centrifugation at 12,000 rpm for 40 min, 100-150 μL was injected for the HPLC analysis. […] After each assay, the column was equilibrated to initial conditions for 7 minutes.
(§9) The area under concentration (AUC) versus time profiles from time zero to the last measured concentration were determined by the linear trapezoidal rule and the AUC from the time of the last measured concentration to infinity was determined by dividing the last determined concentration by the least-squares elimination rate constant (λZ). […] The relative tissue exposure (re) of the compounds was calculated from AUCTissue/AUCserum.

in vitro = conditions: female, NIH Swiss, mouse
Method: (§10) All the solvents were of HPLC grade. Chromatography was performed on an Altech Hypersil ODS C18 (5 μm particle size, 4.5×150 mm, Altech Associates, Deerfield, Ill.).
(§11) In vitro metabolism study. Female NIH Swiss mice (Harland Sprague-Dawley, Indianapolis, Ind.) were sacrificed and serum, liver and brain tissues were collected before each experiment. Serum was collected from several animals. The brain and liver were washed in normal saline at 4° C., wiped and then weighed. […] Samples and blanks of volume 400 μL were collected at 0, 5, 15, and 30 minutes and at 1, 2, 3, 4 and 5 hours.
(§12) To measure the analyte concentrations in serum, liver or brain homogenate, 400 μL of sample was mixed with 50 μL of internal standard (AzdU, 5 μg/mL) and 0.7 mL of acetonitrile. After centrifugation, the supernatant was decanted to another tube and treated with anhydrous Na2SO4, then vortexed for one minute and centrifuged again. The organic layer was separated and evaporated under nitrogen stream at room temperature. The residue was reconstituted in mobile phase A and filtered through MPS-I micropartition system (3KD membranes (Amicon Inc., Beverly, Mass.) by centrifugation for 50 minutes at 2000 rpm to further clean-up the samples. 100 μL of filtrate was injected for analysis.

[5] = system: microsomal fraction of the human liver homogenate; test: Azido reduction assay
Method: Briefly, incubation mixtures contained either 1.5 mg of human liver fraction protein (homogenate or supernatant fractions following centrifugation) or 1.5 mg microsomal protein, 5.0 mM MgCl2, 6.0 mM NADPH and 0.4 mg/mL of 6-AAP in 0.1 M phosphate buffer saline at pH 7.4 (final volume of 0.2 mL). The reaction was initiated by adding NADPH and conducted at 37° C. for 60 minutes under nitrogen. Reactions were terminated by heating at 100° C. for 30 seconds and the proteins were removed by centrifugation at 14,000 g for six minutes. Aliquots (100 μL) were then analyzed for nucleosides by HPLC. Control incubations were performed in the absence of protein.
Inhibition of azido reduction assay: Assays were performed using 1.5 mg microsomal protein as described above following either a 45 second exposure to carbon monoxide or a 5 minute pre-incubation with 1 mM metyrapone prior to the addition of NADPH.

[6] = In vivo pharmacokinetics of 6-AAP and ara-A in mice (serum and brain)
Method: as §5, §6, §7, §8, §9

[7] = In vitro metabolism study of 6-AAP and ara-A in mouse liver homogenate, serum and brain homogenate
Method: as §10, §11, §12

[8] = In vitro stability in PBS, mouse serum, brain and liver homogenate (FAAddP, FMAddA); assay type: in vitro ADME; conditions: for half-life at 70 μM: mouse
Method: In vitro stability in serum, brain and liver homogenate. Liver and brain homogenate were prepared in a 1: 1 (g:mL) ratio with isotonic 0.05 M phosphate buffer, pH 7.4. FAAddP (70 μM) or FMAddA (50 μM) were added to the mouse serum, the brain homogenate or the liver homogenate and incubated in a shaker water bath at 37° C. Aliquots of 100 μL were removed at time zero and at selected times for up to 6 hours. Concentrations of the compounds were determined by HPLC.
as §1, §2, §3
Data analysis in vitro studies.

[9] = biological target: T2, adenosine deaminase (type VII from calf intestinal mucosa) (Bos taurus, UniProt P56658); test: Deamination by adenosine deaminase (2′-fluoronucleosides); assay type: biochemical; conditions: in vitro biotransformation
T2 construct: type VII from calf intestinal mucosa; purchased Sigma Chemical Co., St. Louis, Mo. type VII; host or cells: calf intestinal mucosa
T2 sequence (P56658 1-363): T1 sequence (P56658 1-363)
Method: Deamination of 2′-F-ara-ddA and FMAddA by adenosine deaminase. Samples (1.5 mL) of 2′-F-ara-ddA (80 μM) or FMAddA (50 μM) were prepared in 0.05 M isotonic phosphate buffer, pH 7.4, and placed into a shaking water bath at 37° C. The reaction was initiated by the addition of 15 μL of adenosine deaminase (type VII from calf intestinal mucosa, Sigma Chemical Co., St. Louis, Mo.). The final activity in the incubation media was 0.05 U/mL for 2′-F-ara-ddA and 1.0 U/mL for FMAddA. At specified time intervals, aliquots of 100 μL were withdrawn for the determination of 2′-F-ara-ddA and 2′-F-ara-ddI or FMAddA and 2′-F-ara-ddI concentrations.
Mobile phase flow rate was 2 mL/min.

[10] = female, NIH-Swiss, mouse, in vivo, iv, 55 mg/kg
[11] = female, NIH-Swiss, mouse, in vivo, po, 55 mg/kg
[12] = after 6-AAP 100 mg/kg iv, brain
[13] = after 6-AAP 100 mg/kg iv, serum
[14] = after 6-AAP 100 mg/kg oral, brain
[15] = after 6-AAP 100 mg/kg oral, serum
[16] = 6-AAP and coformycin incubated in mouse liver homogenate
[17] = 6-AAP incubated in mouse liver homogenate

Structure (SMILES): Nc1ncnc2c1ncn2[C@@H]1O[C@H](CO)C[C@@H]1F [2′-F-ara-ddA, 2′-fluoro-2′,3′-dideoxyadenosine]
- AUC0-τ (in vivo [1]; [10]): 3.9 µM·h
- AUC (in vivo [1]; [10]): 3 µM·h
- AUC (in vivo [1]; [11]): 0.8 µM·h
- half-life (in vivo [1]; [11]): 1.74 h
- AUC/Dose (in vivo [1]; mice, after FAAddP 55 mg/kg iv, brain): 0.02 μM · h/μmol/kg
- AUC/Dose (in vivo [1]; mice, after FAAddP 55 mg/kg iv, serum): 0.04 μM · h/μmol/kg
- AUC/Dose (in vivo [1]; mice, after FAAddP 55 mg/kg oral, serum): 0.005 μM · h/μmol/kg
- potency in protecting CD4+ATH8 cells from cytopathogenic effects of HIV-1 (HIV-1): as potent as the parent compounds

Structure (SMILES): Nc1nc2c(ncn2COCCO)c(=O)[nH]1 [Acyclovir]
- oral bioavailability [2]: 15-20%

Structure (SMILES): [N-]=[N+]=Nc1ncnc2c1ncn2[C@@H]1O[C@H](CO)[C@@H](O)[C@@H]1O [Compound 6-AAP, 9-(β-D-arabinofuranosyl)-6-azidopurine]
- stability at pH 2 ([3]; UV at 287.5 nm, 2.75 hours): did not show any significant change; also recorded: stable
- stability at pH 7 ([3]; UV at 287.5 nm, 2.75 hours): did not show any significant change; also recorded: stable
- stability at pH 11 ([3]; UV spectroscopy): immediately changed its UV absorption maximum; also recorded: shifted from 287.5 nm to 222.5 nm immediately
- hydrolysis by adenosine deaminase (adenosine deaminase): not hydrolysed
- Kp (in vivo [4]; intravenous, 100 mg/kg): 0.02
- Kp (in vivo [4]; iv, 100 mg/kg): 0.02
- Kp (in vivo [4]; oral, 100 mg/kg): 0.3
- Kp (in vivo [4]; po, 100 mg/kg): 0.33
- AUC (in vivo [4]; serum, iv, 20 mg/kg): 85600 ng·h/mL
- AUC (in vivo [4]; serum, iv, 100 mg/kg): 201000 ± 17900 ng·h/mL
- AUC (in vivo [4]; serum, po, 100 mg/kg): 13800 ± 1400 ng·h/mL
- bioavailability (in vivo [4]; serum, po, 100 mg/kg): 6.8%
- half-life at 100 μg/mL (in vitro; brain homogenate): 7.29 h
- half-life at 100 μg/mL (in vitro; tissue homogenate): 4.9 h
- azido reduction (metabolites formed) [5]: converted to ara-A
- Maximum concentration in serum, intravenous ([6]; after 6-AAP 100 mg/kg iv): 465 ± 167 µg/mL
- maximum concentration in the brain, intravenous ([6]; after 6-AAP 100 mg/kg iv): 5.92 ± 0.7 µg/g
- time of maximum concentration in the brain, intravenous ([6]; after 6-AAP 100 mg/kg iv): 5 min
- AUC [6, 12]: 4410 ± 370 ng·h/mL
- t1/2 [6, 12]: 0.77 h
- AUC [6, 13]: 201100 ± 17900 ng·h/mL
- t1/2 [6, 13]: 0.55 h
- Maximum concentration in serum, oral ([6]; after 6-AAP 100 mg/kg oral): 7.8 ± 2.51 µg/mL
- maximum concentration in the brain, oral ([6]; after 6-AAP 100 mg/kg oral): 1.87 µg/g
- time of maximum concentration in serum, oral ([6]; after 6-AAP 100 mg/kg oral): 60 min
- time of maximum concentration in the brain, oral ([6]; after 6-AAP 100 mg/kg oral): 30 min
- re (brain) ([6]; after 6-AAP 100 mg/kg oral, AUCTissue/AUCserum): 0.30
- AUC [6, 14]: 4120 ± 370 ng·h/mL
- t1/2 [6, 14]: 1.29 h
- AUC [6, 15]: 13770 ± 1400 ng·h/mL
- t1/2 [6, 15]: 0.58 h
- fold difference in the AUC values after iv dosing of 20 and 100 mg/kg ([6]; serum): 5 fold
- Kel [7, 16]: 0.12 h⁻¹
- T1/2 [7, 16]: 5.98 h
- Kel ([7]; 6-AAP incubated in mouse brain homogenate): 0.01 h⁻¹
- Kel [7, 17]: 0.14 h⁻¹
- T1/2 [7, 17]: 4.66 h
- Kel ([7]; 6-AAP incubated in mouse serum, calculated from 0 to 1 h): 0.25 h⁻¹
- T1/2 ([7]; 6-AAP incubated in mouse serum, calculated from 0 to 1 h (slow initial decline)): 3.73 h

Structure (SMILES): [N-]=[N+]=Nc1ncnc2c1ncn2C1OC(CO)CC1F [FAAddP, 6-azido-2′,3′-dideoxy-2′-fluoro-β-D-arabinofuranosylpurine]
- stability in phosphate buffer saline ([8]; PBS pH 7.4, 37° C.): stable
- half-life at 70 μM ([8]; brain homogenate, pH 7.4, mouse brain homogenate, read-out: half-life in brain homogenate (converted)): 6.1 h
- half-life at 70 μM ([8]; liver homogenate, pH 7.4, mouse liver homogenate, biphasic, after initial 45 minutes, read-out: t1/2 in liver homogenate, subsequent slower phase (converted)): 7.74 h
- half-life at 70 μM ([8]; liver homogenate, pH 7.4, mouse liver homogenate, biphasic, initial phase, read-out: t1/2 in liver homogenate, initial 45 minutes (converted)): 0.48 h
- half-life at 70 μM ([8]; mouse serum, 37° C., read-out: degradation half-life in mouse serum (converted)): 2.41 h
- direct conversion to 2′-F-ara-ddI by adenosine deaminase [9]: negligible rate
- intravenously administered dose of prodrug converted to 2′-F-ara-ddI (in vivo [1]; female, NIH-Swiss, mouse, in vivo): Approximately 30%
- clearance (in vivo [1]; female, NIH-Swiss, mouse, in vivo, iv): 18.7 mL/min/kg
- t½ (in vivo [1]; [10]): 0.22 h
- half-life (in vivo [1]; [10]): 0.22 h
- AUC/Dose (in vivo [1]; [11]): 0.19 μM · h/μmol/kg
- bioavailability (in vivo [1]; [11]): 19%
- AUC (in vivo [1]; [11]): 34.2 µM·h
- half-life (in vivo [1]; [11]): 1.53 h
- azido reduction (metabolites formed) [5]: metabolized to 2′-F-ara-ddA and 2′-F-ara-ddI
